Assay results published in paper PMC8426295, “Cytotoxic and radiosensitising effects of a novel thioredoxin reductase inhibitor in breast cancer” (Investigational New Drugs, 2021).

Legend:
Test in all cases: Clonogenic survival assay
Type in all cases: cell-based
Settings in all cases: Homo sapiens
[1] = test system: MDA-MB-231 cells
Experimental: (§1) 5 × 10^5 cells were seeded in T25 cm^2 tissue culture flasks and incubated overnight. The sub-confluent cells were then treated either for 4-h or 48-h with IQ9 (0–5000 nM) or doxorubicin (10–20 nM). Following drug treatment, cells were collected, counted, and plated at low-density, in triplicate, and incubated, at 37 °C, 5% CO2, undisturbed, for 2 weeks for TNBC cells and 3 weeks for luminal cells, for colony formation. Colonies were fixed (50% methanol in 0.9% saline solution) and stained (0.5% crystal violet solution). Colonies consisting of more than 50 cells were confirmed by microscopy and scored as survivors. The plating efficiency (PE) was calculated as numbers of colonies formed/ numbers of cells plated. For single-agent treatment, drug or radiation, the surviving fraction was calculated as: number of colonies formed/ (numbers of cell plated x PE). For drug radiation combination experiments, cytotoxicity of drug treatment was accounted for by calculating surviving fraction as: number of colonies formed from each radiation dose/ (number of cells plated × PE × surviving fraction of drug-treated cell at 0 Gy).
(§2) IC50 values were calculated from dose-response curves using an SPSS regression model between inhibition ratios and concentration gradients. The radiobiological parameters: alpha (α), beta (β), α/β ratio, and surviving fraction at 2 Gy (SF2) were extracted from the survival curves fitted using the LQ model. All results are presented as average ± standard deviation (SD) of three independent experiments, each performed in triplicate. Data were analysed using the student T-test and ANOVA one-way test. Statistical analysis was performed using SPSS 23.0 software. Values of P < 0.05 were considered statistically significant.

[2] = test system: MDA-MB-468 cells
Experimental: as §1, §2

[3] = test system: T47D cells
Experimental: as §1, §2

COC1=CC(=O)c2c(c(COc3c(F)cc(F)cc3F)cn2C)C1=O [IQ9]
IC50 ([1]; MDA-MB-231, 4 h): 565 ± 29.5 nM
IC50 ([1]; MDA-MB-231, 48 h): 324 ± 20.1 nM
IC50 ([2]; MDA-MB-468, 4 h): 502 ± 171 nM
IC50 ([2]; MDA-MB-468, 48 h): 916 ± 173 nM
IC50 ([3]; 4 h): 2070 ± 53.7 nM
IC50 ([3]; 48 h): 1880 ± 298 nM
